# Patent US8163793B2, “Proline derivatives” (Hoffman-La Roche Inc., priority 2009, dated 2012)
# Where a name gives a salt, the structure may show the parent alone.
# Key:
# Cathepsin S = Cathepsin S (UniProt P25774); experiment: Cathepsin enzyme inhibition assay (fluorogenic peptide substrate Z-Val-Val-Arg-AMC), Cathepsin S; assay type: biochemical, human and mouse; details: enzyme 1 nM, substrate 20 μM, pH 6.5; read-out: CatS IC50
# Procedure, shortened: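 Compounds were combined with 1 nM human or mouse enzyme, and substrate then started the reaction. The buffer was potassium phosphate (100 mM, pH 6.5) containing EDTA-Na 5 mM, Triton X-100 0.001% and […] 5 mM.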
# Cat L = Cat L (UniProt P07711); experiment: Cathepsin enzyme inhibition assay (fluorogenic peptide substrate Z-Val-Val-Arg-AMC), Cathepsin L; assay type: biochemical, human and mouse; details: enzyme 1 nM, substrate 20 μM, pH 6.5; read-out: CatL IC50
# Procedure, shortened: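 Fluorogenic cleavage of Z-Val-Val-Arg-AMC (20 μM) by 1 nM Cat L was monitored at ex 360/em 465 nm for 20 min, the linear phase. The buffer was 100 mM potassium phosphate pH 6.5 with 5 mM EDTA and DTT. IC50 values were derived by standard methods, in μM.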
IC50 (Cathepsin S) [nM],IC50 (Cat L) [nM],Compound
7.6,≥ 25000,"COC(=O)N1C[C@H](S(=O)(=O)c2ccccc2Cl)C[C@H]1C(=O)NC1(C#N)CC1 [Example 95, (2S,4R)-4-(2-Chloro-benzenesulfonyl)-2-(1-cyano-cyclopropylcarbamoyl)-pyrrolidine-1-carboxylic acid methyl ester]"
1.75,2710,"Cc1cc(N2C[C@H](S(=O)(=O)c3ccccc3Cl)C[C@H]2C(=O)NC2(C#N)CC2)n(Cc2ccccc2)n1 [Example 379, (2S,4R)-1-(2-Benzyl-5-methyl-2H-pyrazol-3-yl)-4-(2-chloro-benzenesulfonyl)-pyrrolidine-2-carboxylic acid (1-cyano-cyclopropyl)-amide]"
12.7,≥ 25000,"N#CC1(NC(=O)[C@@H]2C[C@@H](S(=O)(=O)c3ccccc3C(F)(F)F)CN2CC(F)(F)C(F)(F)F)CC1 [Example 109, (2S,4R)-1-(2,2,3,3,3-Pentafluoro-propyl)-4-(2-trifluoromethyl-benzenesulfonyl)-pyrrolidine-2-carboxylic acid (1-cyano-cyclopropyl)-amide]"
1.4,17300,"N#CC1(NC(=O)[C@@H]2C[C@@H](S(=O)(=O)c3ccc(-n4cccn4)cc3Cl)CN2)CC1 [Example 128, (2S,4R)-4-(2-Chloro-4-pyrazol-1-yl-benzenesulfonyl)-pyrrolidine-2-carboxylic acid (1-cyano-cyclopropyl)-amide]"
30.5,62100,"CCN1C[C@H](S(=O)(=O)c2ccccc2Cl)C[C@H]1C(=O)NC1(C#N)CC1 [Example 83, (2S,4R)-4-(2-Chloro-benzenesulfonyl)-1-ethyl-pyrrolidine-2-carboxylic acid (1-cyano-cyclopropyl)-amide]"
0.6,≥ 25000,"Cc1ccc(C(=O)N2C[C@H](S(=O)(=O)c3ccccc3C(F)(F)F)C[C@H]2C(=O)NCC#N)cc1 [Example 66, (2S,4R)-1-(4-Methyl-benzoyl)-4-(2-trifluoromethyl-benzenesulfonyl)-pyrrolidine-2-carboxylic acid cyanomethyl-amide]"
0.615,240,"N#CC1(NC(=O)[C@@H]2C[C@@H](S(=O)(=O)c3ccccc3Cl)CN2C(=O)C(F)(F)c2ccc(Cl)cc2)CC1 [Example 442, (2S,4R)-4-(2-Chloro-benzenesulfonyl)-1-[2-(4-chloro-phenyl)-2,2-difluoro-acetyl]-pyrrolidine-2-carboxylic acid (1-cyano-cyclopropyl)-amide]"
0.1,45,"N#CC1(NC(=O)[C@@H]2C[C@@H](S(=O)(=O)c3ccc(Cl)cc3Cl)CN2C(=O)C2(c3ccc(Cl)cc3)CC2)CC1 [Example 223, (2S,4R)-1-[1-(4-Chloro-phenyl)-cyclopropanecarbonyl]-4-(2,4-dichloro-benzenesulfonyl)-pyrrolidine-2-carboxylic acid (1-cyano-cyclopropyl)-amide]"
0.25,7230,"Cc1cc(N2C[C@H](S(=O)(=O)c3ccccc3C(F)(F)F)C[C@H]2C(=O)NC2(C#N)CC2)n(-c2ccnc3ccccc23)n1 [Example 352, (2S,4R)-1-(5-Methyl-2-quinolin-4-yl-2H-pyrazol-3-yl)-4-(2-trifluoromethyl-benzenesulfonyl)-pyrrolidine-2-carboxylic acid (1-cyano-cyclopropyl)-amide]"
3130,≥ 25000,"CC(C)CS(=O)(=O)[C@@H]1C[C@@H](C(=O)NC2(C#N)CC2)N(C(=O)OC(C)(C)C)C1 [Example 113, (2S,4R)-2-(1-Cyano-cyclopropylcarbamoyl)-4-(2-methyl-propane-1-sulfonyl)-pyrrolidine-1-carboxylic acid tert-butyl ester]"
0.31,1100,"Cc1csc(C2(C(=O)N3C[C@H](S(=O)(=O)c4ccccc4Cl)C[C@H]3C(=O)NC3(C#N)CC3)CC2)n1 [Example 413, (2S,4R)-4-(2-Chloro-benzenesulfonyl)-1-[1-(4-methyl-thiazol-2-yl)-cyclopropanecarbonyl]-pyrrolidine-2-carboxylic acid (1-cyano-cyclopropyl)-amide]"
0.05,100,"N#CC1(NC(=O)[C@@H]2C[C@@H](S(=O)(=O)c3ccc(OCC(F)(F)F)cc3Cl)CN2C(=O)C2(c3ccc4c(c3)OCO4)CC2)CC1 [Example 384, (2S,4R)-1-(1-Benzo[1,3]dioxol-5-yl-cyclopropanecarbonyl)-4-[2-chloro-4-(2,2,2-trifluoro-ethoxy)-benzenesulfonyl]-pyrrolidine-2-carboxylic acid (1-cyano-cyclopropyl)-amide]"
0.2,≥ 25000,"N#CCNC(=O)[C@@H]1C[C@@H](S(=O)(=O)c2ccccc2C(F)(F)F)CN1C(=O)C1CCCCC1 [Example 67, (2S,4R)-1-Cyclohexanecarbonyl-4-(2-trifluoromethyl-benzenesulfonyl)-pyrrolidine-2-carboxylic acid cyanomethyl-amide]"
235,≥ 25000,"CC(C#N)(NC(=O)[C@@H]1C[C@@H](S(=O)(=O)c2ccccc2Cl)CN1)c1ccccc1 (stereo partly drawn) [Example 48, (2S,4R)-4-(2-Chloro-benzenesulfonyl)-pyrrolidine-2-carboxylic acid (cyano-methyl-phenyl-methyl)-amide Hydrochloride]"
2.95,≥ 25000,"N#CC1(NC(=O)[C@@H]2C[C@@H](S(=O)(=O)c3ccccc3C(F)(F)F)CN2c2ccc(F)c(Cl)c2)CC1 [Example 394, (2S,4R)-1-(3-Chloro-4-fluoro-phenyl)-4-(2-trifluoromethyl-benzenesulfonyl)-pyrrolidine-2-carboxylic acid (1-cyano-cyclopropyl)-amide]"
1.95,945,"CC(C)(C)OC(=O)N1CCC(C(=O)N2C[C@H](S(=O)(=O)c3ccccc3Cl)C[C@H]2C(=O)NC2(C#N)CC2)(c2ccc(Cl)cc2)CC1 [Example 433, tert-butyl 4-(4-chlorophenyl)-4-((2S,4R)-4-(2-chlorophenylsulfonyl)-2-(1-cyanocyclopropylcarbamoyl)pyrrolidine-1-carbonyl)piperidine-1-carboxylate]"
0.3,28500,"Cc1cc(N2C[C@H](S(=O)(=O)c3ccccc3C(F)(F)F)C[C@H]2C(=O)NC2(C#N)CC2)n(C2CCC2)n1 [Example 322, (2S,4R)-1-(2-Cyclobutyl-5-methyl-2H-pyrazol-3-yl)-4-(2-trifluoromethyl-benzenesulfonyl)-pyrrolidine-2-carboxylic acid (1-cyano-cyclopropyl)-amide]"
6.6,≥ 25000,"N#CC1(NC(=O)[C@@H]2C[C@@H](S(=O)(=O)c3ccccc3)CN2C(=O)C2CCOCC2)CC1 [Example 74, (2S,4R)-4-Benzenesulfonyl-1-(tetrahydro-pyran-4-carbonyl)-pyrrolidine-2-carboxylic acid (1-cyano-cyclopropyl)-amide]"
0.935,9130,"CC(=O)N[C@H]1CC[C@H](CC(=O)N2C[C@H](S(=O)(=O)c3ccc(OCC(F)(F)F)cc3Cl)C[C@H]2C(=O)NC2(C#N)CC2)CC1 [Example 274, (2S,4R)-1-[2-(4-Acetylamino-cyclohexyl)-acetyl]-4-[2-chloro-4-(2,2,2-trifluoro-ethoxy)-benzenesulfonyl]-pyrrolidine-2-carboxylic acid (1-cyano-cyclopropyl)-amide]"
4.5,4920,"N#CC1(NC(=O)[C@@H]2C[C@@H](S(=O)(=O)c3ccc(Cl)cc3Cl)CN2)CC1 [Example 15, (2S,4R)-4-(2,4-Dichloro-benzenesulfonyl)-pyrrolidine-2-carboxylic acid (1-cyano-cyclopropyl)-amide Hydrochloride]"
15.3,14800,"C[C@H](Oc1ccc(S(=O)(=O)[C@H]2CN[C@H](C(=O)NC3(C#N)CC3)C2)c(Cl)c1)C(F)(F)F [Example 230, (2S,4R)-4-[2-Chloro-4-((S)-2,2,2-trifluoro-1-methyl-ethoxy)-benzenesulfonyl]-pyrrolidine-2-carboxylic acid (1-cyano-cyclopropyl)-amide]"
2.4,22800,"CC(C)OC(=O)N1C[C@H](S(=O)(=O)c2ccccc2Cl)C[C@H]1C(=O)NC1(C#N)CC1 [Example 97, (2S,4R)-4-(2-Chloro-benzenesulfonyl)-2-(1-cyano-cyclopropylcarbamoyl)-pyrrolidine-1-carboxylic acid Isopropyl Ester]"
9.4,23800,"CC(Oc1ccc(S(=O)(=O)[C@@H]2C[C@@H](C(=O)NC3(C#N)CC3)N(C(=O)OC(C)(C)C)C2)c(Cl)c1)C(F)(F)F (stereo partly drawn) [Example 122, (2S,4R)-4-[2-Chloro-4-(2,2,2-trifluoro-1-methyl-ethoxy)-benzenesulfonyl]-2-(1-cyano-cyclopropylcarbamoyl)-pyrrolidine-1-carboxylic acid tert.-butyl ester]"
0.3,≥ 25000,"CC(C)(C)C(=O)N1C[C@H](S(=O)(=O)c2ccc(OCC(F)(F)F)cc2C(F)(F)F)C[C@H]1C(=O)NC1(C#N)CC1 [Example 212, (2S,4R)-1-(2,2-Dimethyl-propionyl)-4-[4-(2,2,2-trifluoro-ethoxy)-2-trifluoromethyl-benzenesulfonyl]-pyrrolidine-2-carboxylic acid (1-cyano-cyclopropyl)-amide]"
195,≥ 25000,"CC(C)C[C@]1(C(=O)NC2(C#N)CC2)C[C@H](S(C)(=O)=O)[C@@H](c2ccc(F)cc2)N1C(=O)OC(C)(C)C [Example 125, (2R,4S,5R)-2-(1-Cyano-cyclopropylcarbamoyl)-5-(4-fluoro-phenyl)-2-isobutyl-4-methanesulfonyl-pyrrolidine-1-carboxylic acid tert.-butyl ester]"
